Publication PMC6584500, “Small-molecule targeting of MUSASHI RNA-binding activity in acute myeloid leukemia” (Nature Communications, 2019)
Like-named read-outs stand apart in the source and are kept apart here. Values belong to the molecule of their own block, whether it stands above or below them.

Key:
bovine serum ALBUMIN = target: T1, bovine serum ALBUMIN (Bos taurus, UniProt P02769); assay: microscale thermophoresis; type: binding
T1 construct: gene ALB

GST-SYNCRIP = target: T2, GST-SYNCRIP (Homo sapiens, UniProt O60506); assay: microscale thermophoresis; type: binding
T2 construct: N-terminal GST-Flag tag kept (pGEX6P3), expressed in E. coli BL21(DE3)
T2 sequence (O60506 1-623): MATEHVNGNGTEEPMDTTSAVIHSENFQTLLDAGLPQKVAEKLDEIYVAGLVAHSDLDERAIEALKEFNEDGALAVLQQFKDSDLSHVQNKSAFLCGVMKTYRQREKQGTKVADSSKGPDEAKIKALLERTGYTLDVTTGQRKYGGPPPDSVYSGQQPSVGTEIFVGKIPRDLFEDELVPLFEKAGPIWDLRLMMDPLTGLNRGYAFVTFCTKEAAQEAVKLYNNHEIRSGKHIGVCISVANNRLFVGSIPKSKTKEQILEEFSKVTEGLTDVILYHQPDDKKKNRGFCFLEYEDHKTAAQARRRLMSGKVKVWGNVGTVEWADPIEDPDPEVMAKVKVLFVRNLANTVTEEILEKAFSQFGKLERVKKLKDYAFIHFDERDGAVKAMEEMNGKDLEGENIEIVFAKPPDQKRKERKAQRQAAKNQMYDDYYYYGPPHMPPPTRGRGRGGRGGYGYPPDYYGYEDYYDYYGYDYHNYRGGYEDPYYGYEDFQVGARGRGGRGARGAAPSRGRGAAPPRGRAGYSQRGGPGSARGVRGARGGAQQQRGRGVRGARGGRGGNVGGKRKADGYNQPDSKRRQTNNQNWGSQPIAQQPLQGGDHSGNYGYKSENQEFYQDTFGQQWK

[1] = target: T3, GST-MSI2 (full-length human MSI2) (Homo sapiens, UniProt Q96DH6, K22A); assay: microscale thermophoresis; type: binding
T3 construct: full-length, N-terminal GST-Flag tag kept (pGEX6P3), expressed in E. coli BL21(DE3)

[2] = target: T4, GST-MSI2 (full-length human MSI2) (Homo sapiens, UniProt Q96DH6); assay: microscale thermophoresis; type: binding
T4 construct: full-length, N-terminal GST-Flag tag kept (pGEX6P3), expressed in E. coli BL21(DE3)

[3] = target: T5, GST-MSI2 (full-length human MSI2) (Homo sapiens, UniProt Q96DH6, F97A); assay: microscale thermophoresis; type: binding
T5 construct: full-length, N-terminal GST-Flag tag kept (pGEX6P3), expressed in E. coli BL21(DE3)

[4] = target: T6, GST-MSI2 (full-length human MSI2) (Homo sapiens, UniProt Q96DH6, F66A/F97A/R100A); assay: microscale thermophoresis; details: NT647-labelled protein, 50 mM HEPES, 100 mM NaCl, 0.05% Tween-20, pH 7.4, RT; no binding
T6 construct: full-length, N-terminal GST-Flag tag kept (pGEX6P3), expressed in E. coli BL21(DE3)

[5] = target: T7, GST-MSI2 (full-length human MSI2) (Homo sapiens, UniProt Q96DH6, F66A); assay: microscale thermophoresis; type: binding
T7 construct: full-length, N-terminal GST-Flag tag kept (pGEX6P3), expressed in E. coli BL21(DE3)

MSI2 RRM1 [6] = target: T8, MSI2 RRM1 (Homo sapiens, UniProt Q96DH6); assay: NMR chemical shift perturbation; type: binding; details: 15N-labelled RRM1, tag removed, 20 mM MES, 150 mM NaCl, pH 6.0, 5 °C
T8 construct: RNA-recognition motif 1 only (nucleotides 64-270 of NM_138962.2 as printed); GST-RRM1 made in BL21(DE3); for NMR His6-SUMO fusion with tag cleaved
T8 sequence (Q96DH6 22-104): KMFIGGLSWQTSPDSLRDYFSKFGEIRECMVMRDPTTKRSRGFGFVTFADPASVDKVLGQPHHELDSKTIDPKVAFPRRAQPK

MSI2 RRM1 [7] = target: T8, MSI2 RRM1; assay: microscale thermophoresis; type: binding; details: NT647-labelled protein, pH 7.4, RT
[8] = target: T9, GST-MSI2 (full-length human MSI2) (Homo sapiens, UniProt Q96DH6, R100A); assay: microscale thermophoresis; type: binding
T9 construct: full-length, N-terminal GST-Flag tag kept (pGEX6P3), expressed in E. coli BL21(DE3)

GST-SRSF2 = target: T10, GST-SRSF2 (Homo sapiens, UniProt Q01130); assay: microscale thermophoresis; type: binding
T10 construct: commercial GST-tagged recombinant protein
T10 sequence (Q01130 2-221): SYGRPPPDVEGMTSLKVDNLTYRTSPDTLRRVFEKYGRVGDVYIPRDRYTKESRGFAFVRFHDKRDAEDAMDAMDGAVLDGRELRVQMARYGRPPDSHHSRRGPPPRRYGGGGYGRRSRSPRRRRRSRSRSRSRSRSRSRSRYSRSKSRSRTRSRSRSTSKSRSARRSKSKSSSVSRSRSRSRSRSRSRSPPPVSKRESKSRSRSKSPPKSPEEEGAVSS

[9] = target: T4, GST-MSI2 (full-length human MSI2); assay: fluorescence polarization, RNA-binding inhibition
[10] = target: T4, GST-MSI2 (full-length human MSI2); assay: fluorescence polarization, RNA-binding inhibition; type: biochemical
[11] = target: T4, GST-MSI2 (full-length human MSI2); assay: fluorescence polarization, RNA-binding inhibition; type: biochemical; details: Cy3-C9-rGUAGUAGU RNA oligo, 384-well; no inhibition
MSI2 F66A = MSI2 F66A (Homo sapiens, UniProt Q96DH6 1-328, F66A); assay: MST; MST: 50 mM HEPES, 100 mM NaCl, 0.05% Tween-20, pH 7.4, RT; EMSA: 10 mM HEPES, 20 mM KCl (+10 mM KCl), 1 mM MgCl2, 1 mM DTT, 5% glycerol, 100 ug/mL tRNA, 40 nM RNA, RT; details: protein: recombinant; tags: GST, Flag; single strand
MSI2 R100A = MSI2 R100A (Homo sapiens, UniProt Q96DH6 1-328, R100A); assay: as above; details: protein: recombinant; tags: GST, Flag; single strand
MSI2 F97A = MSI2 F97A (Homo sapiens, UniProt Q96DH6 1-328, F97A); assay: as above; details: protein: recombinant; tags: GST, Flag; single strand
MSI2 WT = MSI2 WT (Homo sapiens, UniProt Q96DH6 1-328); assay: as above; details: protein: recombinant; tags: GST, Flag; single strand
MSI2 K22A = MSI2 K22A (Homo sapiens, UniProt Q96DH6 1-328, K22A); assay: as above; details: protein: recombinant; tags: GST, Flag; single strand
Sequence of MSI2 K22A (Q96DH6 whole entry K22A): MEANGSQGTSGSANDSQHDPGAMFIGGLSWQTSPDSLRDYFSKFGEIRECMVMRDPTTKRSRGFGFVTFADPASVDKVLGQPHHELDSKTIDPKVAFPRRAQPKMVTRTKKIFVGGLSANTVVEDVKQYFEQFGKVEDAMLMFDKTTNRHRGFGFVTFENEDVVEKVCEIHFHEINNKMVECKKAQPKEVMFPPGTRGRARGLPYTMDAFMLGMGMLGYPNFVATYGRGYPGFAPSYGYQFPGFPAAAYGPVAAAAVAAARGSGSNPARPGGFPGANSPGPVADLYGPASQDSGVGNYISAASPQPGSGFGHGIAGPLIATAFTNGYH

T4 sequence (Q96DH6 whole entry): as the sequence (Q96DH6 whole entry K22A) above, with A22K counted along it
Sequence of MSI2 WT (Q96DH6 whole entry): as the sequence (Q96DH6 whole entry K22A) above, with A22K counted along it
T7 sequence (Q96DH6 whole entry F66A): as the sequence (Q96DH6 whole entry K22A) above, with A22K, F66A counted along it
Sequence of MSI2 F66A (Q96DH6 whole entry F66A): as the sequence (Q96DH6 whole entry K22A) above, with A22K, F66A counted along it
Sequence of MSI2 R100A (Q96DH6 whole entry R100A): as the sequence (Q96DH6 whole entry K22A) above, with A22K, R100A counted along it
T9 sequence (Q96DH6 whole entry R100A): as the sequence (Q96DH6 whole entry K22A) above, with A22K, R100A counted along it
T1 sequence (P02769 25-607): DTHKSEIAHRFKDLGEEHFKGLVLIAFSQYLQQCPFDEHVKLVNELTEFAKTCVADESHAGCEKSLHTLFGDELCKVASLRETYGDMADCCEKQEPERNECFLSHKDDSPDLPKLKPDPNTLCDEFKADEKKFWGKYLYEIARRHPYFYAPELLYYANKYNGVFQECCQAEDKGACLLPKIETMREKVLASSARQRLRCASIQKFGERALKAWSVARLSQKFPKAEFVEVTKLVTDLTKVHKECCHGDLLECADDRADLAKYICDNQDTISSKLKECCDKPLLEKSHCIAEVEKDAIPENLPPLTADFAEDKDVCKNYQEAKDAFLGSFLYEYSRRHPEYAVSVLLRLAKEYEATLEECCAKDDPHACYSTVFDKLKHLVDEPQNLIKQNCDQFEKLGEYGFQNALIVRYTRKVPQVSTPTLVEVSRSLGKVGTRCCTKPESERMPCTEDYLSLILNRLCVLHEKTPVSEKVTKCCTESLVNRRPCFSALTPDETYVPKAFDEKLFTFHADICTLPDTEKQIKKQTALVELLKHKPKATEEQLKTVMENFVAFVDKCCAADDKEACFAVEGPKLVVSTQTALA
T3 sequence (Q96DH6 whole entry K22A): as the sequence (Q96DH6 whole entry K22A) above
T5 sequence (Q96DH6 whole entry F97A): as the sequence (Q96DH6 whole entry K22A) above, with A22K, F97A counted along it
Sequence of MSI2 F97A (Q96DH6 whole entry F97A): as the sequence (Q96DH6 whole entry K22A) above, with A22K, F97A counted along it
T6 sequence (Q96DH6 whole entry F66A/F97A/R100A): as the sequence (Q96DH6 whole entry K22A) above, with A22K, F66A, F97A, R100A counted along it

Kd (bovine serum ALBUMIN): > 500 µM
Kd (GST-SYNCRIP): 236 ± 167 µM
Kd [1]: > 200 µM
Kd [2]: 12.3 ± 0.5 µM
Kd [3]: 69.5 ± 14.7 µM
Kd [5]: > 200 µM
Kd (MSI2 RRM1 [7]): 24.3 ± 4 µM
Kd [8]: 148 ± 65 µM
Kd (GST-SRSF2): 190 ± 62 µM
IC50 [9]: 2.7 ± 0.4 µM
Molecule: Cc1cc2nc3c(=O)[nH]c(=O)nc-3n(C)c2cc1C=O [Ro, Ro 08–2750]
microscale thermophoresis [4]: The triple mutant (F66A/F97A/R100A) was incapable of binding to Ro
NMR chemical shift perturbation (MSI2 RRM1 [6]): observed three main regions with structural changes by titrating MSI2 with Ro

Kd [2]: 302 ± 119 µM
IC50 [10]: 25 ± 8 µM
Molecule: Cc1cc2nc3c(=O)[nH]c(=O)nc-3n(C)c2cc1CO [Ro-OH]

Kd ([2]; NT647-labelled protein, 50 mM HEPES, 100 mM NaCl, 0.05% Tween-20, pH 7.4, RT, no interaction detected up to 500 μM): > 500 µM
Molecule: CC(=O)Nc1ccc2nc3c(=O)n(C)c(=O)n(C)c3nc2c1 [Ro-NGF]
fluorescence polarization, RNA-binding inhibition [11]: Ro-NGF failing to inhibit RNA-binding activity

Molecule: GUAGUAGUAGUAGUA (ssRNA) [15-nt MSI RNA oligo]
Kd (MSI2 F66A): 0.0062 ± 0.0006 µM
Kd (MSI2 R100A): 0.0065 ± 0.0009 µM
Kd (MSI2 F97A): 0.0066 ± 0.001 µM
Kd (MSI2 WT): 0.0088 ± 0.0009 µM
Kd (MSI2 K22A): 0.0064 ± 0.0006 µM
